Measurements reported in patent US20070082949A1, “Agent for preventing and treating language disorders” (priority 2003, published 2007).

Columns and labels:
language disorder = assay: Effect of EPA-E on a language-disordered patient with a history of cerebral infarction; assay type: in vivo, human
Protocol: A person with the history of cerebral infarction was treated. The patient experienced cerebral infarction in November, 2001, and started rehabilitation therapy of left hemiplegia from April, 2002. In June, 2002, the patient was hospitalized for 1 month because of recurrence of the cerebral infarction, and again started the rehabilitation therapy from August, 2002. The drugs that the patient had been taking before the EPA-E include: Gramalil (trade name; manufactured by Fujisawa Pharmaceutical Co., Ltd.; generic name, tiapride hydrochloride), Ketas (trade name; manufactured by Kyorin Pharmaceutical Co., Ltd.; generic name, ibudilast), Panaldine (trade name; manufactured by Daiichi Pharmaceutical Co., Ltd.; generic name, ticlopidine hydrochloride), Nivadil (trade name; manufactured by Fujisawa Pharmaceutical Co., Ltd.; generic name, nilvadipine), Altat (trade name; manufactured by Teikoku Hormone Mfg. Co., Ltd.; generic name, roxatidine acetate hydrochloride).
Before taking EPA-E, the patient could barely bring out a word. From September, 2002, the patient was administered with Epadel S600 (trade name; manufactured by Mochida Pharmaceutical Co., Ltd.; generic name, ethyl icosapentate) at a dose 600 mg and 3 times a day (namely, at a daily dose of 1800 mg).

[1] = tested on: cell derived from mouse connective tissue; settings: cited from earlier work
rat = settings: delayed discrimination test in rat; cited from earlier work

CC/C=C\C/C=C\C/C=C\C/C=C\C/C=C\CCCC(=O)OCC [EPA-E, ethyl icosapentate]
speech / conversation of the patient (language disorder; 1800 mg/day from September 2002, December 2002): able to carry on a complicated conversation comprising not only a single word but a plurality of words | frequency of conversation, vocabulary, communication ability (language disorder; 1800 mg/day from September 2002, February 2003): further improvement was noted in the frequency of conversation, vocabulary, communication ability | frequency of conversation and vocabulary (language disorder; 1800 mg/day from September 2002, January 2003): the frequency of the conversation as well as vocabulary increased even further | speech / conversation of the patient (language disorder; 1800 mg/day from September 2002, November 2002): responding “not hurting anywhere” when fallen from the bed, and waking up at night and responding “I am not sleepy” | adverse events (language disorder; 1800 mg/day, 6 months from the start of the administration): no adverse event suggested to be caused by EPA-E was found | speech / conversation of the patient (language disorder; person, Epadel S600 600 mg 3 times a day (1800 mg/day) from September 2002, late October 2002): started to respond by saying “Good morning”, and also started brief conversation with the care giver during the meal

CC/C=C\C/C=C\C/C=C\C/C=C\C/C=C\CCCC(=O)O [EPA, all-cis-5,8,11,14,17-icosapentaenoic acid]
side effects (overall conclusion) (language disorder; human, in vivo): no side effects | therapeutic effect for language disorder (overall conclusion) (language disorder; summary of Example 1): significant therapeutic effects for language disorder | NGF production [1]: action of enhancing NGF production | correct reaction rate (rat): increase of correct reaction rate
